Publication PMC7366380, “Discovery of a Potent and Selective Covalent Inhibitor and Activity-Based Probe for the Deubiquitylating Enzyme UCHL1, with Antifibrotic Activity” (Journal of the American Chemical Society, 2020)
Values joined by “and” are separate entries in the source; they are usually repeats but may differ in a detail not shown here. Equal entries are not always repeated.

What was measured:
Experiment in all cases: In-cell proteome-wide competitive ABPP, HEK293: other DUBs and proteins
[1] = target: DUBs and other proteins in HEK293 cells (Homo sapiens, UniProt Q93008); settings: replicates A-C; for Log2 reporter intensity values: USP9X;USP9Y: competition with ABP 2, DMSO substract (FC); for Log2 reporter intensity values: USP9X;USP9Y, DMSO subtracted
[2] = target: T1, DUBs and other proteins in HEK293 cells (Homo sapiens, UniProt Q96RU2); settings: replicates A-C; for Log2 reporter intensity values: USP28: competition with ABP 2, DMSO substract (FC); for Log2 reporter intensity values: USP28, DMSO subtracted
T1 sequence (Q96RU2 1-1077): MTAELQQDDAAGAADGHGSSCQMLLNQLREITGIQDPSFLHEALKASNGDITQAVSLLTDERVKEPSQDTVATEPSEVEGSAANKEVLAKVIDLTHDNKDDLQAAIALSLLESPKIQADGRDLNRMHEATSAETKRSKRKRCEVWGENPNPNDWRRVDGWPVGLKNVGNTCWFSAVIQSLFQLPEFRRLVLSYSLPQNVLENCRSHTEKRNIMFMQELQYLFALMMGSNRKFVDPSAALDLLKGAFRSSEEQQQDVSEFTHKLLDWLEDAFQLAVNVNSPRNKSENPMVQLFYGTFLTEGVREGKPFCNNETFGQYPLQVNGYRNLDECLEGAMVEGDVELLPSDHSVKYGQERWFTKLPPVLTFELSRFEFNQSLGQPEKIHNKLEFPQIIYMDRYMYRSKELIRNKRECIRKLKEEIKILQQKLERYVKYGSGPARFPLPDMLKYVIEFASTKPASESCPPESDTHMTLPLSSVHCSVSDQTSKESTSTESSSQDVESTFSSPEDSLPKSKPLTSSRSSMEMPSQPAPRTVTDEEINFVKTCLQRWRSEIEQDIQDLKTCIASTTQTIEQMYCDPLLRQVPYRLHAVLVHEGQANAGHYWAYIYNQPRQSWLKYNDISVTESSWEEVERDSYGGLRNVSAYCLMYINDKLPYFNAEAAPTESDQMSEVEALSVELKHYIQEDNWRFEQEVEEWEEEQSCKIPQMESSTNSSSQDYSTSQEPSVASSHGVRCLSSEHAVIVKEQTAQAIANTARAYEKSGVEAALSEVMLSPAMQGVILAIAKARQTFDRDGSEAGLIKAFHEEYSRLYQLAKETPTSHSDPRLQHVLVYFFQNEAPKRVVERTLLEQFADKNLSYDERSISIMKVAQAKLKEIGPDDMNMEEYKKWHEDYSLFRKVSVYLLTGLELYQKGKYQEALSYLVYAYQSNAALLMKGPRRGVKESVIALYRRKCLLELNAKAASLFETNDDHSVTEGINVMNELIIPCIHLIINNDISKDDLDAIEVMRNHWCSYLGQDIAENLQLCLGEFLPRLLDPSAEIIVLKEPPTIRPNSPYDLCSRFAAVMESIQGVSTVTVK

[3] = target: DUBs and other proteins in HEK293 cells (Homo sapiens, UniProt P54578); settings: replicates A-C; for Log2 reporter intensity values: USP14: competition with ABP 2, DMSO substract (FC); for Log2 reporter intensity values: USP14, DMSO subtracted
[4] = target: DUBs and other proteins in HEK293 cells (Homo sapiens, UniProt Q6P2Q9); settings: replicates A-C; for Log2 reporter intensity values: PRPF8: competition with ABP 2, DMSO substract (FC); for Log2 reporter intensity values: PRPF8, DMSO subtracted
[5] = target: DUBs and other proteins in HEK293 cells (Homo sapiens, UniProt O00487); settings: replicates A-C; for Log2 reporter intensity values: PSMD14: competition with ABP 2, DMSO substract (FC); for Log2 reporter intensity values: PSMD14, DMSO subtracted
[6] = target: DUBs and other proteins in HEK293 cells (Homo sapiens, UniProt Q7L5N1); settings: for Log2 reporter intensity values, COPS6: TMT replicates; for Log2 reporter intensity values / Log2 reporter intensity values: COPS6: replicates A-C; for Log2 reporter intensity values: COPS6: competition with ABP 2, DMSO substract (FC)
[7] = target: DUBs and other proteins in HEK293 cells (Homo sapiens, UniProt Q92905); settings: for Log2 reporter intensity values, COPS5: TMT replicates; for Log2 reporter intensity values / Log2 reporter intensity values: COPS5: replicates A-C; for Log2 reporter intensity values: COPS5: competition with ABP 2, DMSO substract (FC)
[8] = 5 μM LDN-57444 (60 min) + 20 nM ABP 2 (10 min), All values
[9] = 5 μM LDN-57444 (60 min) + 20 nM ABP 2 (10 min), DMSO subtracted
[10] = 25 μM LDN-57444 (60 min) + 20 nM ABP 2 (10 min), All values
[11] = 25 μM LDN-57444 (60 min) + 20 nM ABP 2 (10 min), DMSO subtracted

DUBs and other proteins in HEK293 cells (Homo sapiens, UniProt P54578), sequence (P54578 whole entry): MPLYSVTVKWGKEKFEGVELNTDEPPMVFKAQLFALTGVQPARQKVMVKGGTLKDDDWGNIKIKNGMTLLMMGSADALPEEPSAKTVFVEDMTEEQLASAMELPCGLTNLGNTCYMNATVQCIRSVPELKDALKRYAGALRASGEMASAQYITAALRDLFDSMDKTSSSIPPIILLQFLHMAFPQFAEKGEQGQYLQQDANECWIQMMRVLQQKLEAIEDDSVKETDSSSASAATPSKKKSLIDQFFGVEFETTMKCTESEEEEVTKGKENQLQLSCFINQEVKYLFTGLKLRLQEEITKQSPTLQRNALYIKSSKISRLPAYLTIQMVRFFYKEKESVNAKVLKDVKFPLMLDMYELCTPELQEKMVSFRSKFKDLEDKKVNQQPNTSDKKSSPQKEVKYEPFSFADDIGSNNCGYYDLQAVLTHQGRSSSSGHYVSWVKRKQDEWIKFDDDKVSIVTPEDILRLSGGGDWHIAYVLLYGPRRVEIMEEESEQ
DUBs and other proteins in HEK293 cells (Homo sapiens, UniProt Q92905), sequence (Q92905 whole entry): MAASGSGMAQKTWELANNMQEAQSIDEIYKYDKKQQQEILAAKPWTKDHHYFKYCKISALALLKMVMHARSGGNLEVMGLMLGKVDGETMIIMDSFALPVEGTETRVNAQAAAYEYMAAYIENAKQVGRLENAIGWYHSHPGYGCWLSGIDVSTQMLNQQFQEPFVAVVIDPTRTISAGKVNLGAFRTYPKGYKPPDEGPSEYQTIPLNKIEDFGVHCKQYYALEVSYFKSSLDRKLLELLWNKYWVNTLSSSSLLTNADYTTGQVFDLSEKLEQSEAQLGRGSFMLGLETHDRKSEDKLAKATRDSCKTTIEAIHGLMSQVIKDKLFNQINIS
DUBs and other proteins in HEK293 cells (Homo sapiens, UniProt Q7L5N1), sequence (Q7L5N1 whole entry): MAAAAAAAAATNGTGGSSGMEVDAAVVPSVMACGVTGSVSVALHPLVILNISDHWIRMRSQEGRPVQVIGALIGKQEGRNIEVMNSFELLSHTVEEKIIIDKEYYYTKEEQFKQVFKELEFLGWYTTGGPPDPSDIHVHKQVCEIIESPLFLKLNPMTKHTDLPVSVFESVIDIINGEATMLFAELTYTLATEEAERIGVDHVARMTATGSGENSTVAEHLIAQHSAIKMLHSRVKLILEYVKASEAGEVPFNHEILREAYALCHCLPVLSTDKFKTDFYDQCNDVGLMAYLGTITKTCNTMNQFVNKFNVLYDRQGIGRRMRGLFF
DUBs and other proteins in HEK293 cells (Homo sapiens, UniProt Q93008), sequence (Q93008 whole entry): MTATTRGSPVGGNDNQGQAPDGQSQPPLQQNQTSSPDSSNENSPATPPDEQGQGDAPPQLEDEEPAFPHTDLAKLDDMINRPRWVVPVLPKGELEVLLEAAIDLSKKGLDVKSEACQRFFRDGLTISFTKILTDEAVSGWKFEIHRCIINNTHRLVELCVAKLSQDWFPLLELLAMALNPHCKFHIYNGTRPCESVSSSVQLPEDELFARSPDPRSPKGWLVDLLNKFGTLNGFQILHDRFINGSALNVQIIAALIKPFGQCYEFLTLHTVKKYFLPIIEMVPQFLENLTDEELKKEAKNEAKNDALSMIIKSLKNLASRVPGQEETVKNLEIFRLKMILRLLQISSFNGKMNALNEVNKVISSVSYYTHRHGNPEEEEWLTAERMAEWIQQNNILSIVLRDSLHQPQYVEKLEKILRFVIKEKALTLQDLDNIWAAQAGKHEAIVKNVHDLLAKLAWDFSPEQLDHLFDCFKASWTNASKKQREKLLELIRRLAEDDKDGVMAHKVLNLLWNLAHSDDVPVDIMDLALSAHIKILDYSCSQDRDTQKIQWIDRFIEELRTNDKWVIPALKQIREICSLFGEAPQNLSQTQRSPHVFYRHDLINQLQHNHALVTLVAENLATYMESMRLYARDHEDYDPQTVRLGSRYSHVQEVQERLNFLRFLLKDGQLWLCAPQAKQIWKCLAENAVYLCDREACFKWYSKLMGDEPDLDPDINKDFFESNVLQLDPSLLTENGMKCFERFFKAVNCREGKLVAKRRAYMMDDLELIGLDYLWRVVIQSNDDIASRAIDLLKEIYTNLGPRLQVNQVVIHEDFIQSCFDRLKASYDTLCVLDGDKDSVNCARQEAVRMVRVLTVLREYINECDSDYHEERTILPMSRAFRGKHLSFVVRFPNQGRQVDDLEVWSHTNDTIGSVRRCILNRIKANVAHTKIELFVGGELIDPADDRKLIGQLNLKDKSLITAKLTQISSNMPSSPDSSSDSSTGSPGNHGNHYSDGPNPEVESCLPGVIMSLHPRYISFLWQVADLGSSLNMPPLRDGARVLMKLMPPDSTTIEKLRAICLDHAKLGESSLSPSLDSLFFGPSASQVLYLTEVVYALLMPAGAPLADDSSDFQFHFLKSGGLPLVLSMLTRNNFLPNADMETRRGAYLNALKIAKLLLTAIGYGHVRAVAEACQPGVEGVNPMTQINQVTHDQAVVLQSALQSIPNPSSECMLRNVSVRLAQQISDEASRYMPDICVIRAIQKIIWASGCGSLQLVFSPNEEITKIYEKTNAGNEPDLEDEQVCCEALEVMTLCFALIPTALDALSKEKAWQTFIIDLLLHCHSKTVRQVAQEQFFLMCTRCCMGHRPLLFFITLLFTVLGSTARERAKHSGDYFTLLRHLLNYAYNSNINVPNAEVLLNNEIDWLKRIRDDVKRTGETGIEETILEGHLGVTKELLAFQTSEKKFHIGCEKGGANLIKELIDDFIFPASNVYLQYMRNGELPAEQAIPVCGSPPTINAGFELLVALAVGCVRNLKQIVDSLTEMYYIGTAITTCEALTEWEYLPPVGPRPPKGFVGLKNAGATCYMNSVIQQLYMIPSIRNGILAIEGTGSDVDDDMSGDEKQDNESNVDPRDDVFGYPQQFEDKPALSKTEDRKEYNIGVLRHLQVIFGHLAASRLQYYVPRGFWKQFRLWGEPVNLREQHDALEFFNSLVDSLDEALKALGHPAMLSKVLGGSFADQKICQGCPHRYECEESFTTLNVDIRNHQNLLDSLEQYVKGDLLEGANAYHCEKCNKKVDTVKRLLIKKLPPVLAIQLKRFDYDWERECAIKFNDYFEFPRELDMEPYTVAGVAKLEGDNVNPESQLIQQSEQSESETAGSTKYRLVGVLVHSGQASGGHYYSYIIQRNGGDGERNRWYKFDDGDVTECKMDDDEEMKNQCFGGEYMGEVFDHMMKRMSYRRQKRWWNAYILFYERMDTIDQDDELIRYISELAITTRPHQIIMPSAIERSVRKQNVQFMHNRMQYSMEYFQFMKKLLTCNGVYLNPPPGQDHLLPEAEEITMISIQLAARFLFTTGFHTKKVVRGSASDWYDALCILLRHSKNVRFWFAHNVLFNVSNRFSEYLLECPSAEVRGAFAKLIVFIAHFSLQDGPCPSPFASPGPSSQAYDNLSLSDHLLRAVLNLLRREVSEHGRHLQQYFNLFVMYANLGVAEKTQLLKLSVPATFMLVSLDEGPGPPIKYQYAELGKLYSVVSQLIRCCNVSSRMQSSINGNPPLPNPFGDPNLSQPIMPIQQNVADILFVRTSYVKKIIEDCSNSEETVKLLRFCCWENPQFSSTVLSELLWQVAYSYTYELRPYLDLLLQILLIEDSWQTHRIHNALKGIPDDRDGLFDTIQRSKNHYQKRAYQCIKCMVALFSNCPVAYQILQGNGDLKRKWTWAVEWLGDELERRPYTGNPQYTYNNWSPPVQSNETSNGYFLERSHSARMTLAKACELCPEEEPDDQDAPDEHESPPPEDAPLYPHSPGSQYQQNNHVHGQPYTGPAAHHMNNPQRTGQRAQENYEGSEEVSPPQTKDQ
DUBs and other proteins in HEK293 cells (Homo sapiens, UniProt O00487), sequence (O00487 whole entry): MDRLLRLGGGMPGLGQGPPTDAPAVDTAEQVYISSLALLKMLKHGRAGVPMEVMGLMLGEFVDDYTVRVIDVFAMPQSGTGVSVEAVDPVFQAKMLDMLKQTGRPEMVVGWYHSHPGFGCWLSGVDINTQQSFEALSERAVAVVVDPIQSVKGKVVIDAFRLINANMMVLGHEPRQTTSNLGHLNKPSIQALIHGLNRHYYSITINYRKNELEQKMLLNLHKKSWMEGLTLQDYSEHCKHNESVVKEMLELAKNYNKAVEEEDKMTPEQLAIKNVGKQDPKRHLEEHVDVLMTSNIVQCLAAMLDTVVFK

CC(=O)O/N=C1\C(=O)N(Cc2cc(Cl)ccc2Cl)c2ccc(Cl)cc21 [LDN]
Log2 reporter intensity values: USP9X;USP9Y ([1]; LDN at 5 μM): 0.9588 and 0.9416 and 0.9642 | Log2 reporter intensity values: USP9X;USP9Y ([1]; LDN at 25 μM): 0.918 and 0.963 and 0.9662 | Log2 reporter intensity values ([1]; LDN at 5 μM): -0.06063 and -0.08675 and -0.05259 | Log2 reporter intensity values ([1]; LDN at 25 μM): -0.1235 and -0.05434 and -0.04956 | Log2 reporter intensity values ([1]; LDN_5 μM): -0.04118 and -0.05839 and -0.03582 | Log2 reporter intensity values ([1]; LDN_25 μM): -0.08207 and -0.03699 and -0.0338 | Log2 reporter intensity values: USP28 ([2]; LDN at 5 μM): 1.021 and 0.7867 and 1.08 | Log2 reporter intensity values: USP28 ([2]; LDN at 25 μM): 0.7474 and 0.7545 and 1.193 | Log2 reporter intensity values ([2]; LDN at 5 μM): 0.03026 and -0.3461 and 0.1114 | Log2 reporter intensity values ([2]; LDN at 25 μM): -0.42 and -0.4063 and 0.2545 | Log2 reporter intensity values ([2]; LDN_5 μM): -0.01852 and -0.253 and 0.04055 | Log2 reporter intensity values ([2]; LDN_25 μM): -0.2923 and -0.2852 and 0.1532 | Log2 reporter intensity values: USP14 ([3]; LDN at 5 μM): 1.178 and 1.18 and 1.165 | Log2 reporter intensity values: USP14 ([3]; LDN at 25 μM): 1.092 and 1.124 and 1.125 | Log2 reporter intensity values ([3]; LDN at 5 μM): 0.2361 and 0.2386 and 0.2201 | Log2 reporter intensity values ([3]; LDN at 25 μM): 0.1275 and 0.1688 and 0.1694 | Log2 reporter intensity values ([3]; LDN_5 μM): 0.1776 and 0.1796 and 0.1646 | Log2 reporter intensity values ([3]; LDN_25 μM): 0.0922 and 0.1239 and 0.1243 | Log2 reporter intensity values: PRPF8 ([4]; LDN at 5 μM): 0.8673 and 0.9446 and 0.9404 | Log2 reporter intensity values: PRPF8 ([4]; LDN at 25 μM): 0.9445 and 0.9891 and 0.9788 | Log2 reporter intensity values ([4]; LDN at 5 μM): -0.2054 and -0.08218 and -0.0886 | Log2 reporter intensity values ([4]; LDN at 25 μM): -0.08236 and -0.01582 and -0.0309 | Log2 reporter intensity values ([4]; LDN_5 μM): -0.1329 and -0.05561 and -0.05981 | Log2 reporter intensity values ([4]; LDN_25 μM): -0.05573 and -0.01115 and -0.02143 | Log2 reporter intensity values: PSMD14 ([5]; LDN at 5 μM): 1.1 and 1.114 and 0.9966 | Log2 reporter intensity values: PSMD14 ([5]; LDN at 25 μM): 0.9804 and 1.072 and 1.068 | Log2 reporter intensity values ([5]; LDN at 5 μM): 0.1369 and 0.1555 and -0.004904 | Log2 reporter intensity values ([5]; LDN at 25 μM): -0.02853 and 0.1005 and 0.09452 | Log2 reporter intensity values ([5]; LDN_5 μM): 0.09685 and 0.1112 and -0.006053 | Log2 reporter intensity values ([5]; LDN_25 μM): -0.02224 and 0.06945 and 0.06505 | Log2 reporter intensity values, COPS6 [6, 8]: 0.1306 and 0.0287 and 0.0623 | Log2 reporter intensity values, COPS6 [6, 9]: 0.1181 and 0.01629 and 0.04989 | Log2 reporter intensity values, COPS6 [6, 10]: -0.04892 and -0.02797 and -0.1172 | Log2 reporter intensity values, COPS6 [6, 11]: -0.06133 and -0.04038 and -0.1296 | Log2 t-test Difference ([6]; COPS6, LDN - 5 μM): 0.0178 | Log2 reporter intensity values ([6]; COPS6, LDN at 5 μM, DMSO subtracted): 0.1181 and 0.01629 and 0.04989 | Log2 reporter intensity values ([6]; COPS6, LDN at 25 μM, DMSO subtracted): -0.06133 and -0.04038 and -0.1296 | Log2 reporter intensity values ([6]; COPS6, LDN_5 μM, DMSO subtracted): 0.08523 and 0.01124 and 0.03507 | Log2 reporter intensity values ([6]; COPS6, LDN_25 μM, DMSO subtracted): -0.04173 and -0.02772 and -0.08603 | Log2 reporter intensity values: COPS6 ([6]; LDN at 5 μM): 1.085 and 1.011 and 1.035 | Log2 reporter intensity values: COPS6 ([6]; LDN at 25 μM): 0.9584 and 0.9724 and 0.9141 | Log2 reporter intensity values, COPS5 [7, 8]: 0.02618 and -0.0337 and -0.04942 | Log2 reporter intensity values, COPS5 [7, 9]: 0.0843 and 0.02441 and 0.00869 | Log2 reporter intensity values, COPS5 [7, 10]: 0.09342 and -0.06531 and -0.07503 | Log2 reporter intensity values, COPS5 [7, 11]: 0.1515 and -0.007194 and -0.01692 | Log2 t-test Difference ([7]; COPS5, LDN - 5 μM): -0.1232 | Log2 reporter intensity values ([7]; COPS5, LDN at 5 μM, DMSO subtracted): 0.0843 and 0.02441 and 0.00869 | Log2 reporter intensity values ([7]; COPS5, LDN at 25 μM, DMSO subtracted): 0.1515 and -0.007194 and -0.01692 | Log2 reporter intensity values ([7]; COPS5, LDN_5 μM, DMSO subtracted): 0.06009 and 0.01698 and 0.005959 | Log2 reporter intensity values ([7]; COPS5, LDN_25 μM, DMSO subtracted): 0.1107 and -0.005057 and -0.01174 | Log2 reporter intensity values: COPS5 ([7]; LDN at 5 μM): 1.06 and 1.017 and 1.006 | Log2 reporter intensity values: COPS5 ([7]; LDN at 25 μM): 1.111 and 0.995 and 0.9883
